In patent publication US6982150B2, “System and method for identifying proteins involved in force-initiated signal transduction” (priority 2002, dated 2006):

Experiments:
[1] = test system: Triton X-100-insoluble cytoskeletons of L-929 cells; assay: Stretch-dependent GFP paxillin binding to Triton X-100-insoluble cytoskeletons (fluorescence, Western blot); design: species or system Mouse
Experimental: Cells were washed once with isotonic ISO buffer (20 mM Hepes, pH 7.5, 150 mM NaCl, 0.5 mM EDTA, 1 mM DTT, 4 mM MgCl2, 1 mM PMSF, 15 μg/ml aprotinin), treated with 0.25% Triton X-100/ISO(+) buffer (ISO buffer supplemented with 0.5 mM ATP, 2% BSA) for 2 min. and washed three times with ISO (+) buffer.
The supernatant was filtrated using PD-10 column (Amersham Pharmacia Biotech, Piscataway, N.J.) preequilibrated with ISO buffer.
L-929 cells were cultured on the silicone substrate and Triton X-100 treated for 2 minutes, as indicated above. Thereafter, the Triton-X-100-insoluble cytoskeleton was washed 3 times with ISO(+) buffer to remove Triton X-100 and remaining Triton-soluble cellular components. After the third wash, the Triton X-100-insoluble cytoskeleton in ISO (+) buffer was left unstretched, stretched for 15 sec, or relaxed (pre-stretched and released from the stretch). The buffer was replaced with the lysate from L929 cells or 293 cells stably transfected with GFP paxillin and incubated for 2 minutes. The lysate was washed 4 times with ISO(+) buffer.
Cytoskeletons were stretched or unstretched. […]

L-929 cells = assay: Stretch-dependent paxillin assembly at focal contacts in intact cells (fluorescence microscopy / immunostaining); format: cell-based, Mouse; conditions: intact L-929 cells, biaxial stretch 10%, genistein 100 μM, FIG. 4B
Experimental: Subconfluent L-929 cells transiently transfected with GFP paxillin in the collagen-coated (type I) silicone membrane (Flexcell International, Hillsborough, N.C.) were stretched biaxially (10% in each dimension) for 2 min., and the GFP fluorescence was observed by fluorescence microscopy. Five min after stretch, the silicone substrate was relaxed to its original size, and the fluorescence was recorded. For endogenous paxillin measurement, L-929 cells cultured in silicone membranes were stretched likewise for 2 min, and fixed with 3.7% formaldehyde/PBS.
GFP fluorescence of L-929 cells transfected with GFP-paxillin were also observed with an Olympus BX50 microscope with a 60×, 0.9 NA water immersion objective.
For immunostaining, cells were fixed with 3.7% formaldehyde/PBS, perneabilized with 0.1% Triton X-100/PBS before incubation with antibodies to paxillin and vinculin.

SMILES	amount of GFP paxillin bound to the stretched cytoskeletons ([1]; cells treated prior to Triton extraction, subconfluent, FIG. 5A, 5B, 5D)	stretch-dependent paxillin accumulation (L-929 cells)	stretch-dependent GFP paxillin binding ([1]; 1 mM added to lysates together with PAO, DTT excluded, FIG. 5C)
O=c1c(-c2ccc(O)cc2)coc2cc(O)cc(O)c12 [genistein]	increase	not inhibited	
[Na+].[Na+].[Na+].[O]=[V]([O-])([O-])[O-] [sodium orthovandate]			did not affect
